Our source for the % of control and % of inhibition values is ChEMBL document CHEMBL5465560, “Selectivity Literature for EUbOPEN Chemogenomic Library” (2024).

Test [1] addresses G protein-coupled receptor kinase 5 (Homo sapiens, UniProt P34947). The test is described as follows: Selectivity interaction (Kinase panel (Z-LYTE Assay)) EUB0001632a GRK5. Particulars: at 10 µM.
Test [2] has as its target Ribosomal protein S6 kinase alpha-3 (Homo sapiens, UniProt P51812). The experiment in a line: Selectivity interaction (ActivX KiNativ screen (ex vivo kinase selectivity in human PBMCs)) EUB0001619a RPS6KA3. The class given is cell-based. Conditions: PBMC, at 1 µM.
The target in test [3] is Serine/threonine-protein kinase WNK2 (Homo sapiens) (UniProt Q9Y3S1). The test is described as follows: Selectivity interaction (ActivX KiNativ screen (ex vivo kinase selectivity in human PBMCs)) EUB0001619a WNK2. The class given is cell-based. Conditions: PBMC, at 1 µM.
Sequence of Serine/threonine-protein kinase WNK2 (Homo sapiens) (Q9Y3S1 whole entry): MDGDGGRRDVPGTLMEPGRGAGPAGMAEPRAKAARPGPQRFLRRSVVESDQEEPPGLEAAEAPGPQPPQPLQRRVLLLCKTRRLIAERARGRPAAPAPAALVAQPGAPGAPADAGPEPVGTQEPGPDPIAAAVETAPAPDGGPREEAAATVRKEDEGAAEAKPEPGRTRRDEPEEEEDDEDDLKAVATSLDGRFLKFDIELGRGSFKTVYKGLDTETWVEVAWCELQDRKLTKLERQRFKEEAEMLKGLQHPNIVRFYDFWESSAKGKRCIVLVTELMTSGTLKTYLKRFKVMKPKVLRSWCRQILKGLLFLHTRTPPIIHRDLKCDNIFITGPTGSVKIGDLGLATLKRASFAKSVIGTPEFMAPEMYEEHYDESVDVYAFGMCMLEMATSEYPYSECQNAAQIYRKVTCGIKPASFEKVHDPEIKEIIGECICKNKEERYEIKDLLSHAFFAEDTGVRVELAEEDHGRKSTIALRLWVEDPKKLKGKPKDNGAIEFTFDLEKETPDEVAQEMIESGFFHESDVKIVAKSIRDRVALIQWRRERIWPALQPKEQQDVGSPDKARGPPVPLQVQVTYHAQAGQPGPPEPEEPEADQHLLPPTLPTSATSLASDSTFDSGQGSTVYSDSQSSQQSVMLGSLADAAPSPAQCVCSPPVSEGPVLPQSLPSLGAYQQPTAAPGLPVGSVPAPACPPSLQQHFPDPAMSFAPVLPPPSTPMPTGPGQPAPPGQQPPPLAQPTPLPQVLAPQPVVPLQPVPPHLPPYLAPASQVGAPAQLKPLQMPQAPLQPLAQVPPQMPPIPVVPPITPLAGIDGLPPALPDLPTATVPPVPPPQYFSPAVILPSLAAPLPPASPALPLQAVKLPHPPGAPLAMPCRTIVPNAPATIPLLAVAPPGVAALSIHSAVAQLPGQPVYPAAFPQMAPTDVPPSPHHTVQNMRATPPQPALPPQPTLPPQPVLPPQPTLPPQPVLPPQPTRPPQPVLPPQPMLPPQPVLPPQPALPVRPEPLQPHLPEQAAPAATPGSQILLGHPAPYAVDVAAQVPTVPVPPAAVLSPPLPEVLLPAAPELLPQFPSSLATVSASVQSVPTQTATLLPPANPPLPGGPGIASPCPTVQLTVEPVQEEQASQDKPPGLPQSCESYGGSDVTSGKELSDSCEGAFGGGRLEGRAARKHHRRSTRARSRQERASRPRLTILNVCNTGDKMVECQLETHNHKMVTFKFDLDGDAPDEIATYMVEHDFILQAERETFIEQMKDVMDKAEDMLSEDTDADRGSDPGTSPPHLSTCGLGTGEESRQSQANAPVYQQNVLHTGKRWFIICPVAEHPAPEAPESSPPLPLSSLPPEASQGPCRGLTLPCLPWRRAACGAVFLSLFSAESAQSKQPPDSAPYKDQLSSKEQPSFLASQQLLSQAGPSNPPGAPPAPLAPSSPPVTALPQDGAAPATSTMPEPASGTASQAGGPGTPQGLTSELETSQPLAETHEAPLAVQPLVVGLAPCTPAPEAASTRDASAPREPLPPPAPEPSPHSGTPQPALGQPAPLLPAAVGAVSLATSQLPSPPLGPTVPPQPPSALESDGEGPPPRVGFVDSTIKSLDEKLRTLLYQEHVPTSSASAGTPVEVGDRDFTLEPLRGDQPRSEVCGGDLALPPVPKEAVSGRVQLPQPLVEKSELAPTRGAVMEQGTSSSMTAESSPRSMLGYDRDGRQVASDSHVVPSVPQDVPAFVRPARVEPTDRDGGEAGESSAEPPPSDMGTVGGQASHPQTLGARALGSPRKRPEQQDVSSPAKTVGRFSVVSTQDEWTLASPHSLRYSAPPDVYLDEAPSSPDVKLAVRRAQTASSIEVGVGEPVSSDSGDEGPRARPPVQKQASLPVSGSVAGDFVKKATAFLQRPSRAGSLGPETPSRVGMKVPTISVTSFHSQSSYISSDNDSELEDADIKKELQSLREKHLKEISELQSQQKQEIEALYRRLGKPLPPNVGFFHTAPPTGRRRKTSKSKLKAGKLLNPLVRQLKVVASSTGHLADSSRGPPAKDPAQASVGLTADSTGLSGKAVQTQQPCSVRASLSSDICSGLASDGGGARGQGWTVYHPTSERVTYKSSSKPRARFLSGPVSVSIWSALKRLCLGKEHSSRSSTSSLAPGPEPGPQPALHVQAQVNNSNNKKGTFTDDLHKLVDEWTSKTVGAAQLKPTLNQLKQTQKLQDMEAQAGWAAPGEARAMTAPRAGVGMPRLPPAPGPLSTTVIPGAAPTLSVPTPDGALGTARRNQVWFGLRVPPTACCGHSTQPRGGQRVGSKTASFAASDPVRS
In test [4] the target is Mitogen-activated protein kinase 10 (Homo sapiens, UniProt P53779). The test is described as follows: Selectivity interaction (SelectScreen profiling (Invitrogen)) EUB0000607a MAPK10. Conditions: at 2 µM.
Sequence of Mitogen-activated protein kinase 10 (P53779 whole entry): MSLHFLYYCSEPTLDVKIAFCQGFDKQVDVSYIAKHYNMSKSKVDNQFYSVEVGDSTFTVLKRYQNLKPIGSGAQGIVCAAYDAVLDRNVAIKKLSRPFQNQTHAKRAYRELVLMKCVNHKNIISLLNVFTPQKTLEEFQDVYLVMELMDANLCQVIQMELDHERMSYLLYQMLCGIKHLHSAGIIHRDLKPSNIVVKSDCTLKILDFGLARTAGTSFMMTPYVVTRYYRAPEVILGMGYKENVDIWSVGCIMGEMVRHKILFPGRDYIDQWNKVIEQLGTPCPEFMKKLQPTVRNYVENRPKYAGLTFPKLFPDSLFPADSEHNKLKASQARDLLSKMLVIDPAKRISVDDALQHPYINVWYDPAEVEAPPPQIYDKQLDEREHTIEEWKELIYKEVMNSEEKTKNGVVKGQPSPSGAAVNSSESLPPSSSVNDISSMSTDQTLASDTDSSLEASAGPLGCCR
For test [5], the target named is Tyrosine-protein kinase ABL1 (Homo sapiens, UniProt P00519). The experiment in a line: Selectivity interaction (ActivX KiNativ screen (kinase selectivity in THP-1 cell lysates)) EUB0000639a ABL1. The format is subcellular. Particulars: lysate, at 0.04 µM.
In test [6] the target is T1, Serine/threonine-protein kinase mTOR (Homo sapiens, UniProt P42345). The test is described as follows: Selectivity interaction (ActivX KiNativ screen (kinase selectivity in THP-1 cell lysates)) EUB0000639a MTOR. Particulars: lysate. The format is subcellular.
For test [7], the target named is Serine/threonine-protein kinase 38-like (Homo sapiens) (UniProt Q9Y2H1). The test is described as follows: Selectivity interaction (ActivX KiNativ screen (kinase selectivity in THP-1 cell lysates)) EUB0000639a STK38L. Conditions: lysate, at 0.04 µM. The class given is subcellular.
Sequence of Serine/threonine-protein kinase 38-like (Homo sapiens) (Q9Y2H1 2-464 limits assumed): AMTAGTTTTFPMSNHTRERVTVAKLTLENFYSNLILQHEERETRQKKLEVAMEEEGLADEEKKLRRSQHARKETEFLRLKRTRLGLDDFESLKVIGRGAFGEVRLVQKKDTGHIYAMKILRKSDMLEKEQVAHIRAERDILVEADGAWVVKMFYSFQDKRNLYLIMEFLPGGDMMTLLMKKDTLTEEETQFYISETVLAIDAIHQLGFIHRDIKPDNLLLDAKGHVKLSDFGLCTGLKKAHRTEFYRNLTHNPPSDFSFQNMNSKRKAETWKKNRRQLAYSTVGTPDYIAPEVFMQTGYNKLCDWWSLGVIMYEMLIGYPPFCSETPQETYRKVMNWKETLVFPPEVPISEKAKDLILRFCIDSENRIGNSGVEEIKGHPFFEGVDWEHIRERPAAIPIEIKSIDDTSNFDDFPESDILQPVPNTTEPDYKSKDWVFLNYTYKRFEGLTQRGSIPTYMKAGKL
The target in test [8] is Tyrosine-protein kinase Lck (Homo sapiens, UniProt P06239). The experiment in a line: Selectivity interaction (KinomeScan (DiscoverX)) EUB0001049a LCK. Particulars: at 1 µM.
Sequence of Tyrosine-protein kinase Lck (P06239 2-509 limits assumed): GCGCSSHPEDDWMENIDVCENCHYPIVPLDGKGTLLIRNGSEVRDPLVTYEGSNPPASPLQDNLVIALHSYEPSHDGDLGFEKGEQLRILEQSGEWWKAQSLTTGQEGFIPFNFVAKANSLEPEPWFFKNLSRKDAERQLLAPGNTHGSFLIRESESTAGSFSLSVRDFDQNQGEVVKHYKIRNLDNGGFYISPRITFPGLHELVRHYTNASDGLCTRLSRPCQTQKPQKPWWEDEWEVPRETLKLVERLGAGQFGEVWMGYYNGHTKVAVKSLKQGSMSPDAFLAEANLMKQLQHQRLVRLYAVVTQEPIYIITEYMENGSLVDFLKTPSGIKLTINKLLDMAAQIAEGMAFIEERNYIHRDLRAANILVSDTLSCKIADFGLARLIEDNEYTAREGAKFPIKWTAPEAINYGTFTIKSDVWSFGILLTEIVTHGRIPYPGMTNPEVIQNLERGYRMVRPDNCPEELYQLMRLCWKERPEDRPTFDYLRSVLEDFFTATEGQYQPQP
Test [9] deals with Tyrosine-protein kinase Srms (Homo sapiens) (UniProt Q9H3Y6). The test is described as follows: Selectivity interaction (KinomeScan (DiscoverX)) EUB0000655a SRMS. Conditions: at 10 µM.
Test [10] addresses T2, Hormonally up-regulated neu tumor-associated kinase (Homo sapiens) (UniProt P57058).
T2 sequence (whole entry): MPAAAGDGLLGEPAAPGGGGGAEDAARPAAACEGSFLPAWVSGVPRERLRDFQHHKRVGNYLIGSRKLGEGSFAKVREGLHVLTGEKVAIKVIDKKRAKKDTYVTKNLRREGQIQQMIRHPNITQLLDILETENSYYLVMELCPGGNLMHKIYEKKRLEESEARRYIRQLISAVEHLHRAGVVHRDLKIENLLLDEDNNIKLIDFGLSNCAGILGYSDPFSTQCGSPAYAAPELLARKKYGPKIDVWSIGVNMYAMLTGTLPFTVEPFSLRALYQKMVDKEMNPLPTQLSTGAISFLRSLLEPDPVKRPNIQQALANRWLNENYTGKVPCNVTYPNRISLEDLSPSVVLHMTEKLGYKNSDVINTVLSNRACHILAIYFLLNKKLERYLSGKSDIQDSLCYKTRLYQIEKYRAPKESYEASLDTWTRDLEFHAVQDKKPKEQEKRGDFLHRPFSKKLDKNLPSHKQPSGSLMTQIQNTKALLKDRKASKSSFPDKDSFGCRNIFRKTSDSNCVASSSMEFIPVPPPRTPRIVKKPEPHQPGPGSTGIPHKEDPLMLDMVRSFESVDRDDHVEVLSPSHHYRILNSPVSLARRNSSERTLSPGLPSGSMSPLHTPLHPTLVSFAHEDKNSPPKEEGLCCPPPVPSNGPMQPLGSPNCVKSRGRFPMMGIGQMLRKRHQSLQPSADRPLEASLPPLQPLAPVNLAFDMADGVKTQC
The experiment in a line: Selectivity interaction (KinomeScan (DiscoverX)) EUB0000618a HUNK. Particulars: at 10 µM.

For test [11], the target named is T3, Mitogen-activated protein kinase 15 (Homo sapiens) (UniProt Q8TD08).
T3 sequence (whole entry): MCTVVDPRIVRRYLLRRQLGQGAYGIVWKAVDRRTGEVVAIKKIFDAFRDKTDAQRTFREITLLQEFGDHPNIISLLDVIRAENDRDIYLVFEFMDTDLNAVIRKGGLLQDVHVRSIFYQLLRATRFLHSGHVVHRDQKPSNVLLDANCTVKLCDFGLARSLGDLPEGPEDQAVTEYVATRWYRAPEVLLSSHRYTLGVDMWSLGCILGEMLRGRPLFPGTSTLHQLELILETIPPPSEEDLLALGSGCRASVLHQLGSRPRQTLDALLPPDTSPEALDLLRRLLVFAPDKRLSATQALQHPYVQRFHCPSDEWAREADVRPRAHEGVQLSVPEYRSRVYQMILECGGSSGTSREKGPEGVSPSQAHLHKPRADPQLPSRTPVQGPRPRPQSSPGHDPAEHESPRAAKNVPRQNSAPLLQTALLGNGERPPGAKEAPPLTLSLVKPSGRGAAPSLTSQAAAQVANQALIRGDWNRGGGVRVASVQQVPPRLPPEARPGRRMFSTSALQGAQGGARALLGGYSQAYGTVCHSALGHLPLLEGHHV
The experiment in a line: Selectivity interaction (KinomeScan (DiscoverX)) EUB0000092b MAPK15. Particulars: at 10 µM.

In test [12] the target is T1, Serine/threonine-protein kinase mTOR. Conditions: at 10 µM.
The target of test [13] is T4, Serine/threonine-protein kinase tousled-like 1 (Homo sapiens) (UniProt Q9UKI8).
T4 sequence (whole entry): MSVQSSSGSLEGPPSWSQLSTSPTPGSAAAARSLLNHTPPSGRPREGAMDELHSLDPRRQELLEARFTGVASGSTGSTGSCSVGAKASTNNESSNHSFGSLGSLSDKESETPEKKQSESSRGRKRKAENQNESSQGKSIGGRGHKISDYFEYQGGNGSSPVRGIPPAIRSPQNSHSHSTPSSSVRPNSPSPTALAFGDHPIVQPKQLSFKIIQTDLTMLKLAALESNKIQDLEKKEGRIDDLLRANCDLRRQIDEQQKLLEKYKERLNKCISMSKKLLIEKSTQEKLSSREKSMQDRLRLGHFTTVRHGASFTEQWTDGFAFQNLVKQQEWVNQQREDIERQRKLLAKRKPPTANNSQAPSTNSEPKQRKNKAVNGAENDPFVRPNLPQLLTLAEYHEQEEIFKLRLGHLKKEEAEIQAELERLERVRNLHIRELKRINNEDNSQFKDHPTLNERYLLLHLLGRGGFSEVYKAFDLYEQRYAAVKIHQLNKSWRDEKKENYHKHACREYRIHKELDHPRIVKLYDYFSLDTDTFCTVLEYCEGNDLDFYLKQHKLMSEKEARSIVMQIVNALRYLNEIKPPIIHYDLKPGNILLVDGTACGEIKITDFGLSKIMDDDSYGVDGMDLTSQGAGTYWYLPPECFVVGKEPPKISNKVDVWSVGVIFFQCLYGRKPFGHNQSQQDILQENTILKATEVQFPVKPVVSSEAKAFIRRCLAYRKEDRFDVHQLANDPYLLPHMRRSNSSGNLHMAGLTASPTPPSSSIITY
The experiment in a line: Selectivity interaction (KinomeScan (DiscoverX)) EUB0001079a TLK1. Particulars: at 1 µM.

Sequence of G protein-coupled receptor kinase 5 (P34947 whole entry, looked up): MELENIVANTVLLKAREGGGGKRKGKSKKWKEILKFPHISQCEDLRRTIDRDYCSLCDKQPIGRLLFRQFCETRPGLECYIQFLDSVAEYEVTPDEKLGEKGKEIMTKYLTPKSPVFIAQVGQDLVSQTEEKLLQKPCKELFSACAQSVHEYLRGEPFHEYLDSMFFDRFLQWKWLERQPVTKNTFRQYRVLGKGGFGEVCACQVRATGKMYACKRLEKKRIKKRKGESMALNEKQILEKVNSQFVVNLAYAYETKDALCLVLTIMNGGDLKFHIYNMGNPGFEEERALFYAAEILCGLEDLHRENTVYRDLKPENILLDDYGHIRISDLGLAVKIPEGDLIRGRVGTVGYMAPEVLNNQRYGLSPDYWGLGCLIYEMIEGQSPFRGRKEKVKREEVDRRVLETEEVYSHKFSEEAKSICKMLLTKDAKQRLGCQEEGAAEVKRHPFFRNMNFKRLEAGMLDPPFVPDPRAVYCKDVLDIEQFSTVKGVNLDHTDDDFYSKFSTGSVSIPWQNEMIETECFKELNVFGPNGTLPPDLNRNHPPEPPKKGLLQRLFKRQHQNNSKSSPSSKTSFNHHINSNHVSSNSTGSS
Sequence of Ribosomal protein S6 kinase alpha-3 (P51812 whole entry): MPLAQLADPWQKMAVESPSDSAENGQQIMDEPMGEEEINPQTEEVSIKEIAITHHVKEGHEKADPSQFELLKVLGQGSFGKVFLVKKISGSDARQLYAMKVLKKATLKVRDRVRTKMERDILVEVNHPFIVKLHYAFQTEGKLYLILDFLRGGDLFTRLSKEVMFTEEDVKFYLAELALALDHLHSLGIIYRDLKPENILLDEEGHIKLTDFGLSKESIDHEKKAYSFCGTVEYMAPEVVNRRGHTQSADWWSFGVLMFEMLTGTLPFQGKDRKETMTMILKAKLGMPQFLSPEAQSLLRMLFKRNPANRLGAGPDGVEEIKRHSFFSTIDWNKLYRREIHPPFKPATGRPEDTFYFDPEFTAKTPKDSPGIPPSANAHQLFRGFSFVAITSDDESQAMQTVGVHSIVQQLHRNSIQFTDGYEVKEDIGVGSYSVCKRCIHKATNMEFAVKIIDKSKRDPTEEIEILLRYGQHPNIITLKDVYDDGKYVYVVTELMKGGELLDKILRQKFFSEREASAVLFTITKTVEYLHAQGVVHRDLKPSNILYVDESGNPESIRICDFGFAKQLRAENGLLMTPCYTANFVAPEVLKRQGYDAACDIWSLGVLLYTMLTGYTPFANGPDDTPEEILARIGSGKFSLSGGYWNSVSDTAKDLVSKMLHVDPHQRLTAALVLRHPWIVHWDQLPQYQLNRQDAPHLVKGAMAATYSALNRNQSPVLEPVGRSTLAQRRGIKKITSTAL

As for `Cn1cc(-n2cnc3c(NCc4nc5cc(Cl)c(Cl)cc5[nH]4)nc(N4CCOCC4)nc32)cn1`, the % of control in [1] was -0.027%.
Regarding `N#Cc1cccc(-c2c[nH]c3ncnc(N4CCOCC4)c23)c1`, the % of inhibition in test [2] was 13%; in test [3], -1%.
As to `CNC(=O)Nc1ccc(-c2nc(N3CC4CCC(C3)O4)c3cnn(C4CCC5(CC4)OCCO5)c3n2)cc1`, the % of inhibition in test [4] stood at 14%.
For the compound `CC[C@@H]1[C@H](F)C(=O)N[C@@H]1COc1nccc2cc(C(N)=O)c(OC)cc12` [ZIMLOVISERTIB], the % of inhibition in [5] is -16.4%; in [6] (at 0.01 µM), 8%; in test [6] (at 0.04 µM) it was 3%; in test [6] (at 0.2 µM), 4.3%; in test [6] (at 1 µM) it was 9.9%; in test [6] (at 5 µM) it was -4.7%. Also, the % of inhibition in test [7] stood at 7.6%.
For the compound `COc1cc(Nc2nc(C)cc(-c3cnn4nc(OC)ccc34)n2)cc(C(F)(F)F)c1`, in [8], the % of control turned out to be 96%.
On to `CN(C)CCOc1ccc(-c2nc(-c3ccncc3)c(-c3ccc4c(c3)CC/C4=N\O)[nH]2)cc1`, for which the % of control in test [9] is 74%.
With `O[C@H]1CC[C@H](Nc2ncc3nc(Nc4c(F)cc(F)cc4F)n([C@H]4CCOC4)c3n2)CC1`, in test [10], the % of control was determined as 89%.
As for `CCC(=O)N1CCN(c2ccc(-n3c(=O)ccc4cnc5ccc(-c6cnc7ccccc7c6)cc5c43)cc2C(F)(F)F)CC1`, the % of control is 79% in test [11] and 0% in test [12].
As for `Nc1cnc(N2CCc3cc(S(=O)(=O)Nc4c(F)cc(Cl)cc4F)cc(N4CCCC4=O)c32)nc1` [TP-020n], in test [13], the % of control came out at 100%.
